Assay results: publication PMC3591457, “Biodistribution and Elimination Study of Fluorine-18 Labeled N^ε-Carboxymethyl-Lysine following Intragastric and Intravenous Administration” (PLoS ONE, 2013)

What was measured:
[1] = ^18F-CML in vivo stability in mice (radio-HPLC of plasma and urine); design: species or system ICR mice
Method: The in vivo stability of the ^18F-CML in mice was determined using arterial blood and urine samples. Male ICR mice (n = 3) were anaesthetised with 2% vaporized isoflurane and injected with a dose of approximately 3.7 MBq of ^18F-CML in 250 µL of normal saline via the tail vein. […] Blood samples were removed immediately and centrifuged at 12,000 rpm for 2 min at 4°C to separate the plasma. The urinary bladder was carefully excised, and the urine was collected from the bladder. The plasma (30 µL) and an aliquot of the urine sample (20 µL) was injected into an HPLC column to analyze the in vivo stability of ^18F-CML in the mice.
The HPLC analysis method was based on using trichloroacetic acid to precipitation plasma proteins, which were subsequently separated by reversed-phase column liquid chromatography using a 150 mm×4.6 mm C18 column with a mobile phase of […] acetonitrile and pure water (55%/45%) and detected based on UV absorbance at 254 nm. Radioactivity signal was detected by a radiochromatography detector (PTW, Freiburg, Germany). The ratio of unchanged ^18F-CML to total radioactivity on the HPLC chromatogram was calculated and expressed as a percentage.

[2] = ^18F-CML in vitro stability (RCP by paper chromatography at room temperature); format: physicochemical; settings: 6 h at room temperature (26±2°C)
Method: The in vitro stability of ^18F-CML was studied by storing the freshly prepared complex at room temperature (26±2°C) for a period of 6 h. The RCP was evaluated every 0.5 h using paper chromatography to determine its in vitro stability.

[3] = Biodistribution after intragastric administration; format: in vivo, ICR mice; settings: for Uptake in bladder, percentage of injected dose per whole tissue / Uptake in brain, percentage of injected dose per whole tissue / Uptake in heart, percentage of injected dose per whole tissue / Uptake in intestines, percentage of injected dose per whole tissue / Uptake in kidneys, percentage of injected dose per whole tissue / Uptake in liver, percentage of injected dose per whole tissue / Uptake in lungs, percentage of injected dose per whole tissue / Uptake in muscles, percentage of injected dose per whole tissue / Uptake in pancreas, percentage of injected dose per whole tissue / Uptake in stomach, percentage of injected dose per whole tissue: intragastric administration, n=3, mean ± SD
Method: The biodistribution of ^18F-CML was studied in eighteen young male ICR mice with a weight range of 18–20 g. Nine mice were used for intravenous administration and the other nine mice were used for intragastric administration.
For intravenous administration, ^18F-CML was injected into a lateral tail vein of the animals under light ether anesthesia. The injection volume (2–3 MBq; radiochemical purity 96%) was 0.1 mL. For intragastric administration, 1.5 MBq of ^18F-labeled CML was given via gastrointestinal tract tract.
The mice were sacrificed at 5, 60, and 120 min after administration of ^18F-CML (three mice at each time point). The animals were sacrificed by heart puncture under ether anaesthesia. The tissues and organs of interest were isolated and counted in a well-type γ counter. Additionally, 200 µL of blood was taken from the carotid artery. The distributions of ^18F-CML in different tissues and organs were calculated and expressed as the percent uptake of the injection dose per whole tissue (% ID).

RAW264.7 cells = assay: Cell uptake of ^18F-CML and native CML in RAW264.7 cells; format: cell-based; settings: n=3, P<0.01, blocking with non-radioactive CML
Method: To compare the different bioactivities of CML and ^18F-CML, two cell lines were evaluated for their capacity to take up native CML and the fluorobenzoylated derivative ^18F-CML. RAW264.7 macrophages and HepG2 liver cells were cultured in DMEM/LOWGLUCOSE, supplemented with 10% fetal bovine serum (FBS), 4.0 mmol/L L-glutamine, 110 mg/L sodium pyruvate, 100 U/mL penicillin, and 100 mg/L streptomycin at 37°C and 5% CO2.
For ^18F-CML cell uptake studies, RAW264.7 cells and HepG2 cells were seeded into 24-well plates at a density of 4×10^5 cells per well. Radio-tracer ^18F-CML (0.5 µCi/well, 3 µmol/mL) was incubated in a 37°C water bath for 15, 30, 60, and 120 min. At each time point the cells were washed 3 times with phosphate-buffered saline (PBS). The supernatant, washing-up liquid (unbound activity) and the pellet (cell-bound activity) were transferred to new tubes. Triplicates of the counting tubes containing supernatant and cell pellet were counted individually using a gamma counter for 1 min. For the blocking experiment, the uptake was carried out in the presence of the non-radioactive CML(10 µmol/mL) and processed similarly as described above. The uptake (%) of radio-tracer into the cell was determined using a gamma counter according to the following equation: [drawing 1]
For CML cell uptake ratio studies, unaltered CML (10 µmol/mL) was added to RAW264.7 and HepG2 cell pellets individually. The total proteins of each cell line were initially extracted from the lysates of 4×10^5 cells. […] The supernatants were purified and detected usingby the method described by Drusch et al., which uses an RP-HPLC method with an ortho-phthaldialdehyde (OPA)-derivatisation and fluorescence detection suited for automation. The HPLC analysis method used a 250 mm×4.6 mm C18 column (GROM-SIL 100 ODS-0 AB, Herrenberg, Germany) and detected the fluorescence excitation at 340 nm and emission at 455 nm. The peak identification of CML was confirmed by the retention time and standard addition and was quantified using an external standard. The amount of CML was calculated and expressed as a percentage.

Metabolic products in the urine (radio HPLC) ([1]; 40 min after injection): No metabolic products were observed
Radioactivity in an unchanged form in the plasma and urine (in vivo stability) ([1]; 60 min after tail vein injection, RP-HPLC): more than 98%
Radiochemical purity (RCP) retained on storage (in vitro stability) [2]: 98.2±0.3%
Uptake in bladder, percentage of injected dose per whole tissue ([3]; 5 min): 5.20±1.68 %ID
Uptake in brain, percentage of injected dose per whole tissue ([3]; 5 min): 1.04±0.02 %ID
Uptake in heart, percentage of injected dose per whole tissue ([3]; 5 min): 1.05±0.25 %ID
Uptake in intestines, percentage of injected dose per whole tissue ([3]; 5 min): 9.91±1.36 %ID
Uptake in kidneys, percentage of injected dose per whole tissue ([3]; 5 min): 2.20±0.95 %ID
Uptake in liver, percentage of injected dose per whole tissue ([3]; 5 min): 1.17±0.45 %ID
Uptake in lungs, percentage of injected dose per whole tissue ([3]; 5 min): 0.35±0.19 %ID
Uptake in muscles, percentage of injected dose per whole tissue ([3]; 5 min): 1.76±0.53 %ID
Uptake in pancreas, percentage of injected dose per whole tissue ([3]; 5 min): 0.2±0.01 %ID
Uptake in stomach, percentage of injected dose per whole tissue ([3]; 5 min): 76.85±7.01 %ID
Uptake in bladder, percentage of injected dose per whole tissue ([3]; 60 min): 12.21±1.62 %ID
Uptake in brain, percentage of injected dose per whole tissue ([3]; 60 min): 0.31±0.03 %ID
Uptake in heart, percentage of injected dose per whole tissue ([3]; 60 min): 0.75±0.52 %ID
Uptake in intestines, percentage of injected dose per whole tissue ([3]; 60 min): 52.29±8.71 %ID
Uptake in kidneys, percentage of injected dose per whole tissue ([3]; 60 min): 3.31±1.91 %ID
Uptake in liver, percentage of injected dose per whole tissue ([3]; 60 min): 1.0±0.12 %ID
Uptake in lungs, percentage of injected dose per whole tissue ([3]; 60 min): 0.51±0.11 %ID
Uptake in muscles, percentage of injected dose per whole tissue ([3]; 60 min): 2.16±1.82 %ID
Uptake in pancreas, percentage of injected dose per whole tissue ([3]; 60 min): 0.32±0.02 %ID
Uptake in stomach, percentage of injected dose per whole tissue ([3]; 60 min): 29.73±3.91 %ID
Uptake in bladder, percentage of injected dose per whole tissue ([3]; 120 min): 29.59±3.7 %ID
Uptake in brain, percentage of injected dose per whole tissue ([3]; 120 min): 0.02±0.01 %ID
Uptake in heart, percentage of injected dose per whole tissue ([3]; 120 min): 0.29±0.59 %ID
Uptake in intestines, percentage of injected dose per whole tissue ([3]; 120 min): 48.32±5.2 %ID
Uptake in kidneys, percentage of injected dose per whole tissue ([3]; 120 min): 2.1±0.29 %ID
Uptake in liver, percentage of injected dose per whole tissue ([3]; 120 min): 0.29±0.05 %ID
Uptake in lungs, percentage of injected dose per whole tissue ([3]; 120 min): 0.23±0.05 %ID
Uptake in muscles, percentage of injected dose per whole tissue ([3]; 120 min): 1.11±1.78 %ID
Uptake in pancreas, percentage of injected dose per whole tissue ([3]; 120 min): 0.05±0.00 %ID
Uptake in stomach, percentage of injected dose per whole tissue ([3]; 120 min): 17.87±2.1 %ID
Accumulation of radioactivity in the gastrointestinal tract ([3]; intragastric, 60 min): approximately 82 % ID
Fraction excreted in the urine ([3]; intragastric, 60 min): 12 % ID
Blood uptake ([3]; intragastric, 120 min, percentage of wet tissue): 0.95±0.09 % ID
SMILES: O=C(O)CNCCCCC(NC(=O)c1ccc([18F])cc1)C(=O)O (stereo not shown) [^18F-CML]
Uptake of radioactivity in untreated cells relative to unlabelled CML-treated (blocked) cells (RAW264.7 cells): 1.8 fold
